Organism: Rattus norvegicus
Test: DrugMatrix - Regimen: Daily Repeat
Assay type: toxicity, organism-based, Sprague-Dawley
Design: regimen Daily Repeat, gender Male, age 6-8 weeks
Conditions: in vivo, po, route oral GAVAGE, vehicle .5 % CMC; for BASOPHIL / EOSINOPHIL / ERYTHROCYTE COUNT / HEMATOCRIT / HEMOGLOBIN / LEUKOCYTE COUNT / LYMPHOCYTE / MEAN CORPUSCULAR HEMOGLOBIN / MEAN CORPUSCULAR HEMOGLOBIN CONCENTRATION / MEAN CORPUSCULAR VOLUME / MONOCYTE / NEUTROPHIL / PLATELET COUNT: tissue Blood; for ALANINE AMINOTRANSFERASE / ALBUMIN / ALKALINE PHOSPHATASE / ASPARTATE AMINOTRANSFERASE / BLOOD UREA NITROGEN / CHLORIDE / CHOLESTEROL / CREATINE PHOSPHOKINASE / CREATININE / GLUCOSE / PHOSPHORUS / POTASSIUM / SODIUM / TOTAL BILIRUBIN / TOTAL PROTEIN: tissue Plasma
[1] = 0 mg/kg, 72 h, dose level Control, time 3 day
[2] = 0 mg/kg, 120 h, dose level Control, time 5 day
[3] = 120 mg/kg, 72 h, dose level Low, time 3 day
[4] = 120 mg/kg, 120 h, dose level Low, time 5 day
[5] = 1500 mg/kg, 72 h, dose level High, time 3 day
[6] = 1500 mg/kg, 120 h, dose level High, time 5 day

For CC1CC(OC(=O)C(O)c2ccccc2)CC(C)(C)C1 (stereo not drawn) [CYCLANDELATE], the BASOPHIL [1] was 0%, the EOSINOPHIL [1] was 0% and the “ERYTHROCYTE COUNT” value [1] was 6.34 x10E6/uL. For the same compound, the HEMATOCRIT [1] was 37.62%, the HEMOGLOBIN [1] was 14.82 G/DL and the “LEUKOCYTE COUNT” value [1] was 11.18 x10E3/uL. The LYMPHOCYTE [1] was 87.5%, the “MEAN CORPUSCULAR HEMOGLOBIN” value [1] was 23.48 pg and the “MEAN CORPUSCULAR HEMOGLOBIN CONCENTRATION” value [1] was 39.5 G/DL. For the same compound, the “MEAN CORPUSCULAR VOLUME” value [1] was 59.45 fL, the MONOCYTE [1] was 1.67% and the NEUTROPHIL [1] was 10.83%. For the same compound, the “PLATELET COUNT” value [1] was 1074.83 x10E3/uL, the “ALANINE AMINOTRANSFERASE” value [1] was 36.5 u/L and the ALBUMIN [1] was 3.9 G/DL. The “ALKALINE PHOSPHATASE” value [1] was 370.17 u/L, the “ASPARTATE AMINOTRANSFERASE” value [1] was 63.17 u/L and the “BLOOD UREA NITROGEN” value [1] was 16.83 mg/dL. The CHLORIDE [1] was 99.33 MEQ/L, the CHOLESTEROL [1] was 64.33 mg/dL and the “CREATINE PHOSPHOKINASE” value [1] was 127 u/L. For the same compound, the CREATININE [1] was 0.55 mg/dL, the GLUCOSE [1] was 173.5 mg/dL and the PHOSPHORUS [1] was 10.08 mg/dL. The POTASSIUM [1] was 6.23 MEQ/L, the SODIUM [1] was 143.5 MEQ/L and the “TOTAL BILIRUBIN” value [1] was 0.52 mg/dL. For the same compound, the “TOTAL PROTEIN” value [1] was 6.35 G/DL, the BASOPHIL [2] was 0% and the EOSINOPHIL [2] was 0.17%. The “ERYTHROCYTE COUNT” value [2] was 6.12 x10E6/uL, the HEMATOCRIT [2] was 37.08% and the HEMOGLOBIN [2] was 14.82 G/DL. For the same compound, the “LEUKOCYTE COUNT” value [2] was 11.87 x10E3/uL, the LYMPHOCYTE [2] was 83.33% and the “MEAN CORPUSCULAR HEMOGLOBIN” value [2] was 24.25 pg. The “MEAN CORPUSCULAR HEMOGLOBIN CONCENTRATION” value [2] was 39.97 G/DL, the “MEAN CORPUSCULAR VOLUME” value [2] was 60.65 fL and the MONOCYTE [2] was 1.5%. For the same compound, the NEUTROPHIL [2] was 15%, the “PLATELET COUNT” value [2] was 1042.83 x10E3/uL and the “ALANINE AMINOTRANSFERASE” value [2] was 46 u/L. For the same compound, the ALBUMIN [2] was 3.82 G/DL, the “ALKALINE PHOSPHATASE” value [2] was 369.5 u/L and the “ASPARTATE AMINOTRANSFERASE” value [2] was 65 u/L. For the same compound, the “BLOOD UREA NITROGEN” value [2] was 16.33 mg/dL, the CHLORIDE [2] was 100.67 MEQ/L and the CHOLESTEROL [2] was 57.17 mg/dL. The “CREATINE PHOSPHOKINASE” value [2] was 130 u/L, the CREATININE [2] was 0.53 mg/dL and the GLUCOSE [2] was 163.33 mg/dL. For the same compound, the PHOSPHORUS [2] was 9.53 mg/dL, the POTASSIUM [2] was 6.27 MEQ/L and the SODIUM [2] was 144.83 MEQ/L. For the same compound, the “TOTAL BILIRUBIN” value [2] was 0.55 mg/dL, the “TOTAL PROTEIN” value [2] was 6.32 G/DL and the BASOPHIL [3] was 0%. The EOSINOPHIL [3] was 0.67%, the “ERYTHROCYTE COUNT” value [3] was 6.2 x10E6/uL and the HEMATOCRIT [3] was 37.27%. For the same compound, the HEMOGLOBIN [3] was 14.57 G/DL, the “LEUKOCYTE COUNT” value [3] was 11.3 x10E3/uL and the LYMPHOCYTE [3] was 86.33%. The “MEAN CORPUSCULAR HEMOGLOBIN” value [3] was 23.5 pg, the “MEAN CORPUSCULAR HEMOGLOBIN CONCENTRATION” value [3] was 39.1 G/DL and the “MEAN CORPUSCULAR VOLUME” value [3] was 60.1 fL. For the same compound, the MONOCYTE [3] was 1.33%, the NEUTROPHIL [3] was 11.67% and the “PLATELET COUNT” value [3] was 1168 x10E3/uL. For the same compound, the “ALANINE AMINOTRANSFERASE” value [3] was 38.33 u/L, the ALBUMIN [3] was 3.93 G/DL and the “ALKALINE PHOSPHATASE” value [3] was 369.67 u/L. For the same compound, the “ASPARTATE AMINOTRANSFERASE” value [3] was 55.67 u/L, the “BLOOD UREA NITROGEN” value [3] was 14 mg/dL and the CHLORIDE [3] was 99 MEQ/L. The CHOLESTEROL [3] was 67.67 mg/dL, the “CREATINE PHOSPHOKINASE” value [3] was 114.33 u/L and the CREATININE [3] was 0.53 mg/dL. The GLUCOSE [3] was 156 mg/dL, the PHOSPHORUS [3] was 10.37 mg/dL and the POTASSIUM [3] was 6.13 MEQ/L. The SODIUM [3] was 144.67 MEQ/L, the “TOTAL BILIRUBIN” value [3] was 0.37 mg/dL and the “TOTAL PROTEIN” value [3] was 6.33 G/DL. For the same compound, the BASOPHIL [4] was 0%, the EOSINOPHIL [4] was 0% and the “ERYTHROCYTE COUNT” value [4] was 5.8 x10E6/uL. For the same compound, the HEMATOCRIT [4] was 35%, the HEMOGLOBIN [4] was 14.13 G/DL and the “LEUKOCYTE COUNT” value [4] was 12.1 x10E3/uL. The LYMPHOCYTE [4] was 90.33%, the “MEAN CORPUSCULAR HEMOGLOBIN” value [4] was 24.37 pg and the “MEAN CORPUSCULAR HEMOGLOBIN CONCENTRATION” value [4] was 40.4 G/DL. For the same compound, the “MEAN CORPUSCULAR VOLUME” value [4] was 60.3 fL, the MONOCYTE [4] was 0.67% and the NEUTROPHIL [4] was 9%. For the same compound, the “PLATELET COUNT” value [4] was 1005.67 x10E3/uL, the “ALANINE AMINOTRANSFERASE” value [4] was 37 u/L and the ALBUMIN [4] was 3.63 G/DL. The “ALKALINE PHOSPHATASE” value [4] was 308.67 u/L, the “ASPARTATE AMINOTRANSFERASE” value [4] was 59 u/L and the “BLOOD UREA NITROGEN” value [4] was 13.33 mg/dL. The CHLORIDE [4] was 99.67 MEQ/L, the CHOLESTEROL [4] was 64 mg/dL and the “CREATINE PHOSPHOKINASE” value [4] was 121.33 u/L. The CREATININE [4] was 0.53 mg/dL, the GLUCOSE [4] was 159 mg/dL and the PHOSPHORUS [4] was 10.83 mg/dL. For the same compound, the POTASSIUM [4] was 6.27 MEQ/L, the SODIUM [4] was 145.33 MEQ/L and the “TOTAL BILIRUBIN” value [4] was 0.37 mg/dL. The “TOTAL PROTEIN” value [4] was 5.93 G/DL, the BASOPHIL [5] was 0% and the EOSINOPHIL [5] was 0%. For the same compound, the “ERYTHROCYTE COUNT” value [5] was 5.97 x10E6/uL, the HEMATOCRIT [5] was 37.13% and the HEMOGLOBIN [5] was 14.77 G/DL. The “LEUKOCYTE COUNT” value [5] was 13.43 x10E3/uL, the LYMPHOCYTE [5] was 84.67% and the “MEAN CORPUSCULAR HEMOGLOBIN” value [5] was 24.83 pg. The “MEAN CORPUSCULAR HEMOGLOBIN CONCENTRATION” value [5] was 39.77 G/DL, the “MEAN CORPUSCULAR VOLUME” value [5] was 62.27 fL and the MONOCYTE [5] was 0.33%. For the same compound, the NEUTROPHIL [5] was 15%, the “PLATELET COUNT” value [5] was 1199 x10E3/uL and the “ALANINE AMINOTRANSFERASE” value [5] was 42.67 u/L. The ALBUMIN [5] was 3.77 G/DL, the “ALKALINE PHOSPHATASE” value [5] was 377.33 u/L and the “ASPARTATE AMINOTRANSFERASE” value [5] was 59.67 u/L. The “BLOOD UREA NITROGEN” value [5] was 13.67 mg/dL, the CHLORIDE [5] was 98.33 MEQ/L and the CHOLESTEROL [5] was 67.67 mg/dL. The “CREATINE PHOSPHOKINASE” value [5] was 127.67 u/L, the CREATININE [5] was 0.57 mg/dL and the GLUCOSE [5] was 161.67 mg/dL. It also gave a PHOSPHORUS [5] of 11.5 mg/dL, a POTASSIUM [5] of 6.17 MEQ/L and an SODIUM [5] of 143.33 MEQ/L. For the same compound, the “TOTAL BILIRUBIN” value [5] was 0.57 mg/dL, the “TOTAL PROTEIN” value [5] was 6.03 G/DL and the BASOPHIL [6] was 0%. The EOSINOPHIL [6] was 0.5%, the “ERYTHROCYTE COUNT” value [6] was 5.77 x10E6/uL and the HEMATOCRIT [6] was 35.95%. For the same compound, the HEMOGLOBIN [6] was 14.35 G/DL, the “LEUKOCYTE COUNT” value [6] was 10.4 x10E3/uL and the LYMPHOCYTE [6] was 91.5%. The “MEAN CORPUSCULAR HEMOGLOBIN” value [6] was 24.9 pg, the “MEAN CORPUSCULAR HEMOGLOBIN CONCENTRATION” value [6] was 39.9 G/DL and the “MEAN CORPUSCULAR VOLUME” value [6] was 62.4 fL. The MONOCYTE [6] was 0%, the NEUTROPHIL [6] was 8% and the “PLATELET COUNT” value [6] was 1077.5 x10E3/uL. The “ALANINE AMINOTRANSFERASE” value [6] was 34.67 u/L, the ALBUMIN [6] was 3.77 G/DL and the “ALKALINE PHOSPHATASE” value [6] was 393 u/L. The “ASPARTATE AMINOTRANSFERASE” value [6] was 55.67 u/L, the “BLOOD UREA NITROGEN” value [6] was 14.33 mg/dL and the CHLORIDE [6] was 100 MEQ/L. The CHOLESTEROL [6] was 87 mg/dL, the “CREATINE PHOSPHOKINASE” value [6] was 123.67 u/L and the CREATININE [6] was 0.57 mg/dL. The GLUCOSE [6] was 158 mg/dL, the PHOSPHORUS [6] was 11.47 mg/dL and the POTASSIUM [6] was 6.4 MEQ/L. For the same compound, the SODIUM [6] was 144.33 MEQ/L, the “TOTAL BILIRUBIN” value [6] was 0.37 mg/dL and the “TOTAL PROTEIN” value [6] was 6.17 G/DL.
